{"source": "ChEMBL document CHEMBL5042470", "about": "“Combined Cardioprotective and Adipocyte Browning Effects Promoted by the Eutomer of Dual sEH/PPARγ Modulator” (J Med Chem, 2021)", "key": {"SGBS [1]": {"test_system": "SGBS", "test": "Induction of browning in human SGBS cells assessed as increase in UQCRC2 mRNA expression by qRT-PCR analysis", "assay_type": "functional, cell-based", "conditions": "dose 0.01-1 µM"}, "SGBS [2]": {"test_system": "SGBS", "test": "Induction of adipogenic differentiation in human SGBS cells assessed as increase in perilipin A mRNA expression A at 0.01 to 1 uM by RT-PCR analysis", "assay_type": "functional, cell-based", "conditions": "dose 0.01-1 µM"}, "SGBS [3]": {"test_system": "SGBS", "test": "Induction of adipogenic differentiation in human SGBS cells assessed as intracellular lipid droplet accumulation at 0.01 to 1 uM measured after 4 days by Nile red staining based imaging analysis", "assay_type": "functional, cell-based", "conditions": "dose 0.01-1 µM, time 4.0 day"}, "SGBS [4]": {"test_system": "SGBS", "test": "Induction of cellular respiration in human SGBS cells assessed as increase in oxygen consumption rate at 0.01 to 1 uM with ATP-linked sequential addition of FCCP measured after 14 days by Seahorse XFe96 flux analyzer", "assay_type": "functional, cell-based", "conditions": "dose 0.01-1 µM, time 14.0 day"}, "SGBS [5]": {"test_system": "SGBS", "test": "Induction of proton leakage in human SGBS cells assessed as increase in oxygen consumption rate at 0.01 to 1 uM with sequential addition of oligomycin measured after 14 days by Seahorse XFe96 flux analyzer", "assay_type": "functional, cell-based", "conditions": "dose 0.01-1 µM, time 14.0 day"}, "SGBS [6]": {"test_system": "SGBS", "test": "Induction of browning in human SGBS cells assessed as increase in UQCRC2 mRNA expression at 0.01 to 1 uM by qRT-PCR analysis", "assay_type": "functional, cell-based", "conditions": "dose 0.01-1 µM"}, "SGBS [7]": {"test_system": "SGBS", "test": "Induction of basal respiration in human SGBS cells assessed as increase in oxygen consumption rate at 0.01 to 1 uM incubated for 14 days in presence of dibutyryl-cAMP by Seahorse XFe96 flux analyzer", "assay_type": "functional, cell-based", "conditions": "dose 0.01-1 µM, time 14.0 day"}, "SGBS [8]": {"test_system": "SGBS", "test": "Induction of browning in human SGBS cells assessed as increase in UCP1 mRNA expression at 0.01 to 1 uM by RT-PCR analysis", "assay_type": "functional, cell-based", "conditions": "dose 0.01-1 µM"}, "Heart [9]": {"test_system": "Heart", "test": "Cardioprotective activity in Langendorff-perfused wild-type C57BL/6 mouse heart assessed as increase in heart rate at 3 nM", "assay_type": "functional, tissue-based"}, "Heart [10]": {"test_system": "Heart", "test": "Cardioprotective activity in Langendorff-perfused wild-type C57BL/6 mouse heart assessed as increase in heart rate at 30 nM", "assay_type": "functional, tissue-based"}, "[11]": {"target": "T1, Retinoic acid receptor alpha (Homo sapiens) (UniProt P10276)", "T1 sequence (whole entry)": "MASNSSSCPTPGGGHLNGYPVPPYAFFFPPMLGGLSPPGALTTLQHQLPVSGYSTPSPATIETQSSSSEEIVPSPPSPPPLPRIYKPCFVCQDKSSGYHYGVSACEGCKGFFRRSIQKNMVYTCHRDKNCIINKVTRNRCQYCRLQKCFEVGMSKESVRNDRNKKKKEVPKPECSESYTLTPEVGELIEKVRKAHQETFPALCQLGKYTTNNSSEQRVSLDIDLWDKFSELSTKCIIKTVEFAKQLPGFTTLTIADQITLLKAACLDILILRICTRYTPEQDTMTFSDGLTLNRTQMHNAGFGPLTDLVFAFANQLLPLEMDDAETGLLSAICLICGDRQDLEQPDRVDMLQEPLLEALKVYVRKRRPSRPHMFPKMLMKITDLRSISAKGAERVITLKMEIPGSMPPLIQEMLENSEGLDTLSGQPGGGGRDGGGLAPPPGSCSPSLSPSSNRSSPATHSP", "test": "Agonist activity at human GAL4 DBD-fused RARalpha LBD (177 to 462 residues) transfected in HEK293T cells assessed as fold activation at 10 uM incubated for 14 to 16 hrs by Renilla/Firefly dual-luciferase reporter assay", "assay_type": "cell-based", "conditions": "time 14-16 hrs"}, "Mus musculus [12]": {"organism": "Mus musculus", "test": "Cardioprotective activity in Langendorff-perfused wild-type C57BL/6 mouse model of coronary occlusion induced ischemia/reperfusion assessed as decrease in left ventricular end diastolic pressure at 3 nmol/L followed by ischemia for 20 mins and measured 2 hrs after reperfusion […]", "assay_type": "functional, organism-based", "conditions": "time 140.0 min"}, "[13]": {"target": "T2, Vitamin D3 receptor (Homo sapiens) (UniProt P11473)", "T2 sequence (whole entry)": "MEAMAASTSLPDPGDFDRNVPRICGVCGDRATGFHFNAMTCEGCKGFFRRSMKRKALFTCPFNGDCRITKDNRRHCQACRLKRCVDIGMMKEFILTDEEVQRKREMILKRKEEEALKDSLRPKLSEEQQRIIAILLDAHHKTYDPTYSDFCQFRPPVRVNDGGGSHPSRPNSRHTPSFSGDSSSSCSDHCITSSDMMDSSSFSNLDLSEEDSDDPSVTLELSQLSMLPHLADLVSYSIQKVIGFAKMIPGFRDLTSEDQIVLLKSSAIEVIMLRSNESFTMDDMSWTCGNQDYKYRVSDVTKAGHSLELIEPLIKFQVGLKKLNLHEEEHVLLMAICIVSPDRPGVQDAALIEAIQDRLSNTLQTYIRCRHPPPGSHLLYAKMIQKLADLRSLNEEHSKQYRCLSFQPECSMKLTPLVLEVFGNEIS", "test": "Agonist activity at human GAL4 DBD-fused VDR LBD (119 to 427 residues) transfected in HEK293T cells assessed as fold activation at 10 uM incubated for 14 to 16 hrs by Renilla/Firefly dual-luciferase reporter assay", "assay_type": "cell-based", "conditions": "time 14-16 hrs"}, "Heart [14]": {"test_system": "Heart", "test": "Cardioprotective activity in Langendorff-perfused wild-type C57BL/6 mouse heart assessed as increase in heart rate at 300 nM", "assay_type": "functional, tissue-based"}, "[15]": {"target": "T3, Oxysterols receptor LXR-alpha (Homo sapiens) (UniProt Q13133)", "T3 sequence (whole entry)": "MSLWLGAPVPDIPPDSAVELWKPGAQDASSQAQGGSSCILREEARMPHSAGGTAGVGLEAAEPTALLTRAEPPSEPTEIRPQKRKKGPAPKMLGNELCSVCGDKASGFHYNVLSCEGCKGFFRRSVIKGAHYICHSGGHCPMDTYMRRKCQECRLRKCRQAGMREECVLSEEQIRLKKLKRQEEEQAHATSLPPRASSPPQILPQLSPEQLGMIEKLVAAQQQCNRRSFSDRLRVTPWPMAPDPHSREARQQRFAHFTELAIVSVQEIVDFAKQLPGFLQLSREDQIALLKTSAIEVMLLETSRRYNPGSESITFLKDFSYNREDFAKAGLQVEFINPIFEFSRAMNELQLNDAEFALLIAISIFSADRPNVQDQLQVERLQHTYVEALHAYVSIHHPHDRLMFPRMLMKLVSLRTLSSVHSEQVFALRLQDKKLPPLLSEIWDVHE", "test": "Agonist activity at human GAL4 DBD-fused LXRalpha LBD (182 to 447 residues) transfected in HEK293T cells assessed as fold activation at 10 uM incubated for 14 to 16 hrs by Renilla/Firefly dual-luciferase reporter assay", "assay_type": "cell-based", "conditions": "time 14-16 hrs"}, "Mus musculus [16]": {"organism": "Mus musculus", "test": "Cardioprotective activity in Langendorff-perfused wild-type C57BL/6 mouse model of coronary occlusion induced ischemia/reperfusion assessed as increase in left ventricular developed pressure at 3 nmol/L followed by ischemia for 20 mins and measured 2 hrs after reperfusion […]", "assay_type": "functional, organism-based", "conditions": "time 140.0 min"}, "[17]": {"target": "T4, Peroxisome proliferator-activated receptor alpha (Homo sapiens) (UniProt Q07869)", "T4 sequence (whole entry)": "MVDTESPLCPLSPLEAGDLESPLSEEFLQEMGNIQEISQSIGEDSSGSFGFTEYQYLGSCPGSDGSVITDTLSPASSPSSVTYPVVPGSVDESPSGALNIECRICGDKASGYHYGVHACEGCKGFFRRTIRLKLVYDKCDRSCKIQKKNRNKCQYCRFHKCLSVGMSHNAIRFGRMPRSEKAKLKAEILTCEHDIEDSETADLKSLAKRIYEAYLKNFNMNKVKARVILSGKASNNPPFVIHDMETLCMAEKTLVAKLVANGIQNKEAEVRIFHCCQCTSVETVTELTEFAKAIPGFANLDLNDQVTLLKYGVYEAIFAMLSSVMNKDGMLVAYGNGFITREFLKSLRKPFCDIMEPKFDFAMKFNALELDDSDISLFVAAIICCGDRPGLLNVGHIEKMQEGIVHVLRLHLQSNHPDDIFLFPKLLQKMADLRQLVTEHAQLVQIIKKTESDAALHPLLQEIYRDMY", "test": "Agonist activity at human GAL4 DBD-fused PPARalpha ( 164 to 466 residues) LBD transfected in HEK293T cells assessed as fold activation at 10 uM incubated for 14 to 16 hrs by Renilla/Firefly dual-luciferase reporter assay", "assay_type": "cell-based", "conditions": "filed as agonist, time 14-16 hrs"}, "[18]": {"target": "T5, Peroxisome proliferator-activated receptor delta (Homo sapiens) (UniProt Q03181)", "T5 sequence (whole entry)": "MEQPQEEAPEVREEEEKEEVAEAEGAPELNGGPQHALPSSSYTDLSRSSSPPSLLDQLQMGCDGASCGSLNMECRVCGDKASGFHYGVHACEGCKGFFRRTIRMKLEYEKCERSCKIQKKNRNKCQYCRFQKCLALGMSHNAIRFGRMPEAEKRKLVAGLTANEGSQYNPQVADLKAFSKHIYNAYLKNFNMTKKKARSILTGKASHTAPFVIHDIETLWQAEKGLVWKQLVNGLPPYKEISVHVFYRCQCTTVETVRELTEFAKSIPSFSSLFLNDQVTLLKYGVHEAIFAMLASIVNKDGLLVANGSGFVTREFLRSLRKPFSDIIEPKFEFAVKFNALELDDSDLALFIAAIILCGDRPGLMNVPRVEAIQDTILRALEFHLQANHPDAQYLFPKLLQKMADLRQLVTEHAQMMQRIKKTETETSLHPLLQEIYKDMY", "test": "Agonist activity at human GAL4 DBD-fused PPARdelta LBD (138 to 441 residues) transfected in HEK293T cells assessed as fold activation at 10 uM incubated for 14 to 16 hrs by Renilla/Firefly dual-luciferase reporter assay", "assay_type": "cell-based", "conditions": "time 14-16 hrs"}}, "note": "The source made the active and inactive calls. No cut-off for these calls is given here.", "data": [{"smiles": "CN(CCOc1ccc(CC2SC(=O)NC2=O)cc1)c1ccccn1", "note": "(configuration not stated)", "values": [{"measurement": "Activity", "setting": "SGBS [1]", "result": "Dose-Dependent Effect"}, {"measurement": "Activity", "setting": "SGBS [2]", "result": "Active"}]}, {"smiles": "CC[C@@H](Cc1ccc(C(=O)NCc2ccc(OC)cc2C(F)(F)F)cc1)C(=O)O", "values": [{"measurement": "Activity", "setting": "SGBS [3]", "result": "inactive"}, {"measurement": "Activity", "setting": "SGBS [4]", "result": "Active"}, {"measurement": "Activity", "setting": "SGBS [5]", "result": "Active"}, {"measurement": "Activity", "setting": "SGBS [6]", "result": "inactive"}, {"measurement": "Activity", "setting": "SGBS [7]", "result": "Active"}, {"measurement": "Activity", "setting": "SGBS [2]", "result": "Active"}, {"measurement": "Activity", "setting": "SGBS [8]", "result": "inactive"}]}, {"smiles": "O=C(NC12CC3CC(CC(C3)C1)C2)N[C@H]1CC[C@H](Oc2ccc(C(=O)O)cc2)CC1", "values": [{"measurement": "Activity", "setting": "Heart [9]", "result": "inactive"}, {"measurement": "Activity", "setting": "Heart [10]", "result": "Active"}]}, {"smiles": "CC[C@H](Cc1ccc(C(=O)NCc2ccc(OC)cc2C(F)(F)F)cc1)C(=O)O", "values": [{"measurement": "Activity", "setting": "[11]", "result": "inactive"}, {"measurement": "Activity", "setting": "Mus musculus [12]", "result": "Active"}, {"measurement": "Activity", "setting": "SGBS [3]", "result": "Active"}, {"measurement": "Activity", "setting": "Heart [9]", "result": "inactive"}, {"measurement": "Activity", "setting": "[13]", "result": "inactive"}, {"measurement": "Activity", "setting": "Heart [14]", "result": "Active"}, {"measurement": "Activity", "setting": "SGBS [4]", "result": "Active"}, {"measurement": "Activity", "setting": "SGBS [5]", "result": "Active"}, {"measurement": "Activity", "setting": "SGBS [6]", "result": "inactive"}, {"measurement": "Activity", "setting": "SGBS [7]", "result": "Active"}, {"measurement": "Activity", "setting": "SGBS [2]", "result": "Active"}, {"measurement": "Activity", "setting": "[15]", "result": "inactive"}, {"measurement": "Activity", "setting": "Mus musculus [16]", "result": "Active"}, {"measurement": "Activity", "setting": "[17]", "result": "Active"}, {"measurement": "Activity", "setting": "SGBS [8]", "result": "Active"}, {"measurement": "Activity", "setting": "[18]", "result": "inactive"}]}]}
